# Laboratory results as given in patent publication US12157746B2, “Tetrahydro-1H-pyrazino[2,1-a]isoindolylquinoline compounds for the treatment of autoimmune disease” (F. HOFFMANN-LA ROCHE AG, priority 2018, dated 2024).
# Biological target: T1, human TLR7 (Homo sapiens, UniProt Q9NYK1)
# T1 sequence (Q9NYK1 27-1049): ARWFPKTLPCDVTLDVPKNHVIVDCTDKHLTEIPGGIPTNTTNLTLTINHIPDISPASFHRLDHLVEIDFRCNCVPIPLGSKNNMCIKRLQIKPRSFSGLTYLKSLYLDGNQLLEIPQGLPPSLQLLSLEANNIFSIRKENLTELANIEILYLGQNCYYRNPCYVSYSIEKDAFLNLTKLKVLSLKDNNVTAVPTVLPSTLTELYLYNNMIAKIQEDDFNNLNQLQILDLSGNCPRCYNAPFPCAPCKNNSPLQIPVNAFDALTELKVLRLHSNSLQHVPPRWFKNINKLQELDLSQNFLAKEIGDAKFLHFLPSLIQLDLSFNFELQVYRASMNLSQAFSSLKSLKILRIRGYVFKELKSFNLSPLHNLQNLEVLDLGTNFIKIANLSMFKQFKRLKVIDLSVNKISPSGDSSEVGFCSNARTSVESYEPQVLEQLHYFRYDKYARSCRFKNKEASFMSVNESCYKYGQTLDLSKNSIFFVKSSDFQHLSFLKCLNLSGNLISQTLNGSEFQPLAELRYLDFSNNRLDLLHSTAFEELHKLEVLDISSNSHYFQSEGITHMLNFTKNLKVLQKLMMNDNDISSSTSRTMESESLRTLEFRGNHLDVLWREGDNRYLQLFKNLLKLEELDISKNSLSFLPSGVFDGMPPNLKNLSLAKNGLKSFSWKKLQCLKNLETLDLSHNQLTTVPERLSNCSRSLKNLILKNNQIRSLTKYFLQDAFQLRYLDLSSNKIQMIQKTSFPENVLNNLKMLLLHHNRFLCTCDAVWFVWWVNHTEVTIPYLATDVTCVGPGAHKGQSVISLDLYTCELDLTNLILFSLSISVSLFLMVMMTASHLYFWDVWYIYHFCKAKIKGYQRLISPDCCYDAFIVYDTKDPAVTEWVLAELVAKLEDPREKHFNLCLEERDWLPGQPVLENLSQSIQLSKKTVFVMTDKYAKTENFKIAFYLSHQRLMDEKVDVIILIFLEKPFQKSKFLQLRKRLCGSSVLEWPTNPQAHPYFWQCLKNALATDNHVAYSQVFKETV
# Assay: HEK293-Blue-hTLR-7 cells assay
# Type: cell-based
# Details: HEK293-Blue-hTLR7 cells, R848 stimulation, 20 hrs, SEAP reporter; read-out: HEK/hTLR7 IC50
# Source text: HEK293-Blue-hTLR-7 Cells Assay:
# A stable HEK293-Blue-hTLR-7 cell line was purchased from InvivoGen (Cat. #: hkb-htlr7, San Diego, California, USA). These cells were originally designed for studying the stimulation of human TLR7 by monitoring the activation of NF-κB. A SEAP (secreted embryonic alkaline phosphatase) reporter gene was placed under the control of the IFN-β minimal promoter fused to five NF-κB and AP-1-binding sites. The SEAP was induced by activating NF-κB and AP-1 via stimulating HEK-Blue hTLR7 cells with TLR7 ligands. Therefore the reporter expression was declined by TLR7 antagonist under the stimulation of a ligand, such as R848 (Resiquimod), for incubation of 20 hrs. The cell culture supernatant SEAP reporter activity was determined using QUANTI-Blue™ kit (Cat. #: rep-qb1, Invivogen, San Diego, Ca. USA) at a wavelength of 640 nm, a detection medium that turns purple or blue in the presence of alkaline phosphatase.
# HEK293-Blue-hTLR7 cells were incubated at a density of 250,000˜450,000 cells/mL in a volume of 170 μL in a 96-well plate in Dulbecco's Modified Eagle's medium (DMEM) containing 4.5 g/L glucose, 50 U/mL penicillin, […], […], 2 mM L-glutamine, 10% (v/v) heat-inactivated fetal bovine serum with addition of 20 μL test compound 1n a serial dilution in the presence of final DMSO at 1% and 10 μL of 20 uM R848 in above DMEM, perform incubation under 37° C. in a CO2 incubator for 20 hrs. Then 20 μL of the supernatant from each well was incubated with 180 μL Quanti-blue substrate solution at 37° C. for 2 hrs and the absorbance was read at 620-655 nm using a spectrophotometer. The signaling pathway that TLR7 activation leads to downstream NF-κB activation has been widely accepted, and therefore similar reporter assay was modified for evaluating TLR7 antagonist.
row,IC50,Structure (SMILES)
1,3.9 nM,"C[C@@H]1CN(c2ccc(C#N)c3ncccc23)C[C@@H]2c3ccc(N4CCNC[C@H](O)C4)cc3CN12 [Example 53A, 5-[(4R,10bS)-8-[(6S)-6-hydroxy-1,4-diazepan-1-yl]-4-methyl-3,4,6,10b-tetrahydro-1H-pyrazino[2,1-a]isoindol-2-yl]quinoline-8-carbonitrile]"
2,4.5 nM,"COC1CN(c2ccc3c(c2)CN2C3CN(c3ccc(C#N)c4ncccc34)C[C@H]2C)CC1N (single isomer, unassigned) [Example 16B]"
3,3.3 nM,"C[C@@H]1CN(c2ccc(C#N)c3ncccc23)C[C@@H]2c3ccc(N4C[C@H](N)[C@@](C)(O)C4)cc3CN12 [Example 45B, 5-[(4R,10bS)-8-[(3S,4S)-4-amino-3-hydroxy-3-methyl-pyrrolidin-1-yl]-4-methyl-3,4,6,10b-tetrahydro-1H-pyrazino[2,1-a]isoindol-2-yl]quinoline-8-carbonitrile]"

# More lines, now with the values behind:
row,Structure (SMILES),IC50
1,"C[C@@H]1CN(c2ccc(C#N)c3ncccc23)C[C@@H]2c3ccc(N4C[C@@H](N)[C@](C)(O)C4)cc3CN12 [Example 45, 5-[(4R,10bS)-4-methyl-8-[trans-(3R,4R)-4-amino-3-hydroxy-3-methyl-pyrrolidin-1-yl]-3,4,6,10b-tetrahydro-1H-pyrazino[2,1-a]isoindol-2-yl]quinoline-8-carbonitrile]",4.5 nM
2,"C[C@@H]1CN(c2ccc(C#N)c3ncccc23)C[C@@H]2c3ccc(N4CC5(CNC5)C4)cc3CN12 [Example 36, 5-[(4R,10bS)-8-(2,6-diazaspiro[3.3]heptan-2-yl)-4-methyl-3,4,6,10b-tetrahydro-1H-pyrazino[2,1-a]isoindol-2-yl]quinoline-8-carbonitrile]",3.3 nM
3,"C[C@@H]1CN(c2ccc(C#N)n3nccc23)C[C@@H]2c3ccc(N[C@H]4CNC[C@H]4F)cc3CN12 [Example 98, 4-[(4R,10bS)-8-[[(3S,4R)-4-fluoropyrrolidin-3-yl]amino]-4-methyl-3,4,6,10b-tetrahydro-1H-pyrazino[2,1-a]isoindol-2-yl]pyrazolo[1,5-a]pyridine-7-carbonitrile]",23.2 nM
4,"C[C@@H]1CN(c2ccc(C#N)c3ncccc23)C[C@@H]2c3ccc(N4CCOC5(CNC5)C4)cc3CN12 [Example 24, 5-[(4R,10bS)-4-methyl-8-(5-oxa-2,8-diazaspiro[3.5]nonan-8-yl)-3,4,6,10b-tetrahydro-1H-pyrazino[2,1-a]isoindol-2-yl]quinoline-8-carbonitrile]",3.4 nM
5,"C[C@@H]1CN(c2ccc(C#N)c3nccnc23)C[C@@H]2c3ccc(N4CCNCC4)cc3CN12 [Example 7, 8-[(4R,10bS)-4-methyl-8-piperazin-1-yl-3,4,6,10b-tetrahydro-1H-pyrazino[2,1-a]isoindol-2-yl]quinoxaline-5-carbonitrile]",< 3.2 nM
6,"C[C@@H]1CN(c2ccc(C#N)c3ncccc23)C[C@@H]2c3ccc(N4C[C@@H](F)[C@@H](N)C4)cc3CN12 [Example 46, 5-[(4R,10bS)-8-[(3S,4R)-3-amino-4-fluoro-pyrrolidin-1-yl]-4-methyl-3,4,6,10b-tetrahydro-1H-pyrazino[2,1-a]isoindol-2-yl]quinoline-8-carbonitrile]",15.6 nM
7,"C[C@@H]1CN(c2ccc(C#N)c3ncccc23)C[C@@H]2c3ccc(N4CCN[C@H](CO)C4)cc3CN12 [Example 12, 5-[(4R,10bS)-8-[(3S)-3-(hydroxymethyl)piperazin-1-yl]-4-methyl-3,4,6,10b-tetrahydro-1H-pyrazino[2,1-a]isoindol-2-yl]quinoline-8-carbonitrile]",< 3.2 nM
8,"C[C@@H]1CN(c2ccc(C#N)c3ncccc23)C[C@@H]2c3ccc(N4CC5(CNCCO5)C4)cc3CN12 [Example 35, 5-[(4R,10bS)-4-methyl-8-(5-oxa-2,8-diazaspiro[3.5]nonan-2-yl)-3,4,6,10b-tetrahydro-1H-pyrazino[2,1-a]isoindol-2-yl]quinoline-8-carbonitrile]",< 3.2 nM
